Results published in US9427425B2, “Extracts, fractions and compositions comprising acetogenins and their applications” (LAILA NUTRACEUTICALS, priority 2009, dated 2016).
Each block holds one compound with its values, some of them ahead of it.

Tests used:
[1] = tested on: TNFα; experiment: Inhibition of LPS induced TNFα in THP-1 human monocytes (EIA); type: cell-based
Experimental: Inhibition of Tumor necrosis factor-α (TNF-α) in vitro by extracts, fractions and compounds of Annona squamosa: The anti-inflammatory activities of extracts, fractions and compounds of Annona squamosa were assessed in a cell based in vitro assay. Briefly, THP-1 human monocytes cells were washed and re-suspended in phenol red free Dulbecco's Modified Eagle's Medium (DMEM) supplemented with 1% fetal Bovine serum (FBS). Equal number of cells was added to each well of a 96-well TC plate and the cells were pretreated for 2 h with various concentrations (ranging from 0.1 to 200 ng/mL; solutions prepared in culture medium from a stock solution containing 50 mg/l mL DMSO of each test compound) of extracts, fractions and compounds of Annona squamosa. The inflammatory response was induced by 100 ng/mL of LPS for 4 h at 37° C. in presence of 5% CO2. The vehicle control culture wells received 0.1% DMSO in culture medium. The cell culture supernatants were collected and assessed for secretory pro-inflammatory cytokine, TNFα. The TNFα concentration was quantitatively measured by highly specific and sensitive Enzyme Immuno Assay (EIA) kit supplied by R&D Systems, USA. The enzyme immuno assay was performed based on the protocol provided by the vendor. The inhibitory concentration for 50% inhibition (IC50) of TNFα was determined from a plot drawn for ingredient concentrations against corresponding TNFα levels. […] Table 1 is a summary of 50% inhibitory (IC50) concentrations of various extracts, fractions and compounds derived from Annona squamosa plant parts in cell based in vitro model.

[2] = tested on: MCP-1; experiment: Serum cytokine multiplex assay in FCA induced rats: MCP-1; type: in vivo, Sprague Dawley rats; conditions: 10 mg/kg; vehicle control = 1.000
Description: (§1) Further, the levels of a wide range of cytokine biomarkers were estimated in the serum of the treatment groups supplemented with LI12100 and the control group using multiplex assay (RCYTOMAG 80K) following the instructions provided by the vendor (Millipore Corporation, Billerica, Mass., USA). […] The cytokines modulated by LI12100 include TNFα, IFNγ, IL-1β, IL-2, IL-4, IL-6, IL-13, MCP-1, Rantes and Eotaxin.
as §1, with “groups” for “groups supplemented with LI12100”, “ameliorated” for “modulated”, “Eotaxin as summarized in Table 3.” for “Eotaxin.”

[3] = tested on: IL-2; experiment: Serum cytokine multiplex assay in FCA induced rats: IL-2; type: in vivo, Sprague Dawley rats; conditions: 10 mg/kg; vehicle control = 1.000
Description: as §1
as §1, with “groups” for “groups supplemented with LI12100”, “ameliorated” for “modulated”, “Eotaxin as summarized in Table 3.” for “Eotaxin.”

[4] = tested on: IL-6; experiment: Serum cytokine multiplex assay in FCA induced rats: IL-6; type: in vivo, Sprague Dawley rats; conditions: 10 mg/kg; vehicle control = 1.000
Description: as §1
as §1, with “groups” for “groups supplemented with LI12100”, “ameliorated” for “modulated”, “Eotaxin as summarized in Table 3.” for “Eotaxin.”

[5] = tested on: Rantes; experiment: Serum cytokine multiplex assay in FCA induced rats: Rantes; type: in vivo, Sprague Dawley rats; conditions: 10 mg/kg; vehicle control = 1.000
Description: as §1
as §1, with “groups” for “groups supplemented with LI12100”, “ameliorated” for “modulated”, “Eotaxin as summarized in Table 3.” for “Eotaxin.”

[6] = tested on: IFNγ; experiment: Serum cytokine multiplex assay in FCA induced rats: IFNγ; type: in vivo, Sprague Dawley rats; conditions: 10 mg/kg; vehicle control = 1.000
Description: as §1
as §1, with “groups” for “groups supplemented with LI12100”, “ameliorated” for “modulated”, “Eotaxin as summarized in Table 3.” for “Eotaxin.”

[7] = tested on: TNFα; experiment: Serum cytokine multiplex assay in FCA induced rats: TNFα; type: in vivo, Sprague Dawley rats; conditions: 10 mg/kg; vehicle control = 1.000
Description: as §1
as §1, with “groups” for “groups supplemented with LI12100”, “ameliorated” for “modulated”, “Eotaxin as summarized in Table 3.” for “Eotaxin.”

[8] = tested on: IL-4; experiment: Serum cytokine multiplex assay in FCA induced rats: IL-4; type: in vivo, Sprague Dawley rats; conditions: 10 mg/kg; vehicle control = 1.000
Description: as §1
as §1, with “groups” for “groups supplemented with LI12100”, “ameliorated” for “modulated”, “Eotaxin as summarized in Table 3.” for “Eotaxin.”

[9] = tested on: TNFα; experiment: Serum TNFα in FCA challenged rats (enzyme-immuno assay kit); type: in vivo, Sprague Dawley rats; conditions: 10 mg/kg
Experimental: After 14 days of FCA challenge, serum TNFα was quantitatively measured by enzyme-immuno assay kit (R&D Systems, USA). The bars a, b and c represent the levels of the cytokines in groups supplemented with control, LI12101 (100 mg/kg) and prednisolone (10 mg/kg) respectively. Each bar represents mean±SD, N=6. * p<0.05 and ** p<0.005 (vs. control).
After 14 days of FCA challenge, serum TNFα[…] was quantitatively measured by enzyme-immuno assay kit (R&D Systems, USA). The bars represent the levels of the cytokines in groups supplemented with control, LI12100 at 50 mg/kg body weight, LI12100 at 100 mg/kg body weight and prednisolone (10 mg/kg) respectively. Each bar represents mean±SD, N=6.
The levels of cytokine tumor necrosis factor alpha (TNFα) were evaluated in blood serum collected 13 days after FCA challenge. The serum cytokine levels were measured using enzyme-immune assay kit supplied by R & D systems, USA.
The levels of cytokine tumor necrosis factor-alpha (TNFα) were evaluated in blood serum collected 14 days after FCA challenge. The serum cytokine levels were measured using enzyme-immune assay kit supplied by R & D systems, USA.

[10] = tested on: IL-1β; experiment: Serum cytokine multiplex assay in FCA induced rats: IL-1β; type: in vivo, Sprague Dawley rats; conditions: 10 mg/kg; vehicle control = 1.000
Description: as §1
as §1, with “groups” for “groups supplemented with LI12100”, “ameliorated” for “modulated”, “Eotaxin as summarized in Table 3.” for “Eotaxin.”

[11] = tested on: Eotaxin; experiment: Serum cytokine multiplex assay in FCA induced rats: Eotaxin; type: in vivo, Sprague Dawley rats; conditions: 10 mg/kg; vehicle control = 1.000
Description: as §1
as §1, with “groups” for “groups supplemented with LI12100”, “ameliorated” for “modulated”, “Eotaxin as summarized in Table 3.” for “Eotaxin.”

[12] = tested on: IL-13; experiment: Serum cytokine multiplex assay in FCA induced rats: IL-13; type: in vivo, Sprague Dawley rats; conditions: 10 mg/kg; vehicle control = 1.000
Description: as §1
as §1, with “groups” for “groups supplemented with LI12100”, “ameliorated” for “modulated”, “Eotaxin as summarized in Table 3.” for “Eotaxin.”

[13] = tested on: Freund's Complete Adjuvant induced paw edema; experiment: Freund's Complete Adjuvant induced arthritis model, paw edema; type: in vivo, Sprague Dawley rats; conditions: 10 mg/kg positive control
Experimental: The potent in vitro anti-inflammatory efficacy shown by the Annona squamosa leaf ethyl acetate extract (LI12101; standardized to 0.2% squamocin C) was then tested in an in vivo system using Freund's Complete Adjuvant induced arthritis model of Sprague Dawley rats. The anti-inflammatory efficacy of LI12101 (100 mg/kg body weight per day) was evaluated in Freund's Complete Adjuvant induced arthritis model of Sprague Dawley rats and compared its efficacy with that shown by the positive control group supplemented with Prednisolone at 10 mg/kg body weight. The treatment group rats were supplemented daily with LI12101 or prednisolone. […] Blood samples were collected from each animal at regular intervals and paw volumes were measured by Plethysmography equipment on the day of FCA injection and after 13 days of FCA inoculation. […]
To further confirm the in vivo anti-inflammatory activity and study the dose dependent effect, the methanol extract of Annona squamosa leaves (LI12100; standardized to 0.24% squamocin C) was evaluated in Freund's Complete Adjuvant induced arthritis model of Sprague Dawley rats. The anti-inflammatory efficacy of LI12100 (at 50 mg/kg and 100 mg/kg body weight per day) was evaluated in FCA induced arthritis model of Sprague Dawley rats and compared its efficacy with that shown by the positive control group supplemented with Prednisolone at 10 mg/kg body weight. […]

[14] = LPS induced THP-1 human monocytes

Compound: CCCCCCCCCCC(O)C1CCC(C2CCC(C(O)CCCCCCCCCCCCC3=CC(C)OC3=O)O2)O1 (centres unmarked) [Squamocin L, squamocin L]
- TNFα inhibition IC50 [1, 14]: 0.116 ng/mL

Compound: CCCCCC(O)CCCCC(O)C1CCC(C2CCC(C(O)CCCCCCCCCCCCC3=CC(C)OC3=O)O2)O1 (centres unmarked) [Squamocin C, squamocin C]
- TNFα inhibition IC50 [1, 14]: 0.0249 ng/mL
- TNFα inhibition IC50 ([1]; THP-1 human monocytes): 0.0249 ng/mL

Compound: isosquamocin
- TNFα inhibition IC50 [1, 14]: 0.080 ng/mL
- TNFα inhibition ([1]; at 100 pg/mL): 63%

Compound: C[C@]12C=CC(=O)C=C1CC[C@@H]1[C@@H]2[C@@H](O)C[C@@]2(C)[C@H]1CC[C@]2(O)C(=O)CO [Prednisolone]
- Relative expression of MCP-1 in serum [2]: 0.802
- Relative expression of IL-2 in serum [3]: 0.515
- Relative expression of IL-6 in serum [4]: 1.377
- Relative expression of Rantes in serum [5]: 0.874
- Relative expression of IFNγ in serum [6]: 1.496
- Relative expression of TNFα in serum [7]: 0.754
- Relative expression of IL-4 in serum [8]: 0.831
- serum TNFα level vs control ([9]; Example 16 study): significant reduction
- serum TNFα level vs control ([9]; Example 17 study): significant reduction
- Relative expression of IL-1β in serum [10]: 0.848
- Relative expression of Eotaxin in serum [11]: 0.992
- Relative expression of IL-13 in serum [12]: 3.120
- reduction in paw volume vs control ([13]; Example 16 study): 71%
- reduction in paw volume vs control ([13]; Example 17 study): 69.2%

Compound: CCCCCCCCCC[C@H](O)[C@H]1CC[C@H]([C@H]2CC[C@H]([C@H](O)CCCCCCCCCC[C@@H](O)CC3=C[C@H](C)OC3=O)O2)O1 [Squamocin G, squamocin G]
- TNFα inhibition IC50 [1, 14]: 0.124 ng/mL

Compound: CCCCCCCCCC[C@@H](O)[C@H]1CC[C@H]([C@H]2CC[C@H]([C@H](O)CCCC[C@H](O)CCCCC[C@@H](O)CC3=C[C@H](C)OC3=O)O2)O1 [10-Hydroxyasimicin, 10-hydroxyasimicin]
- TNFα inhibition IC50 [1, 14]: 3.21 ng/mL

- TNFα inhibition IC50 [1, 14]: 4.08 ng/mL
Compound: CCCCCCCCCC[C@H](O)[C@@H]1CC[C@@H]([C@H](O)CC[C@@H](O)[C@@H]2CC[C@@H](CCCCCCCCCC3=C[C@@H](C)OC3=O)O2)O1 [Squamostatin D, squamostatin D]

- TNFα inhibition IC50 [1, 14]: >5 ng/mL
Compound: CCCCCCCCCCCCCC[C@H]1O[C@H]1CC[C@@H]1O[C@@H]1CCCCCCCCCCC1=C[C@H](C)OC1=O [Dieposabadelin, dieposabadelin]
